Assay results from US8729017B2 (priority 2011, dated 2014).
Numbered stars: 1 amine (or outer) side, 2 acyl side, 3 side chain; on linkers, the order of the positions; unused ones are H or OH. Square brackets hold non-standard residues; d marks the D form. Side chains are listed from the residue outwards. Peptide text beside a SMILES is read from it. * marks the point of attachment. γGlu = O=C(O)[C@H](CCC(=O)[*:2])N[*:1]; Palmitoyl = CCCCCCCCCCCCCCCC(=O)*; Aib = CC(C)(N)C(=O)O

Key:
Type in all cases: cell-based
[1] = target: T1, GLP-1 receptor (Homo sapiens, UniProt P43220); assay: cAMP induction, firefly luciferase reporter assay in HEK293 cells co-transfected with the GLP-1 receptor; details: HEK293 cells, cAMP-responsive luciferase reporter, 5 hours incubation
T1 construct: expressed in transfected cells; host or cells: HEK293
Method: (§1) The ability of each peptide to induce cAMP was measured in a firefly luciferase-based reporter assay. […] At the end of the incubation, 100 μL of LucLite luminescence substrate reagent (Perkin Elmer, Wellesley, Mass.) were added to each well. […] In some instances, the in vitro agonist activity at the GIP receptor was also tested.

[2] = target: T2, GIP receptor (Homo sapiens, UniProt P48546); assay: in vitro agonist activity at the GIP receptor (cAMP luciferase reporter, HEK293 cells); details: in vitro agonist activity; read-out: EC50 (nM) at GIP receptor
T2 construct: expressed in transfected cells; host or cells: HEK293
T2 sequence (P48546 22-466): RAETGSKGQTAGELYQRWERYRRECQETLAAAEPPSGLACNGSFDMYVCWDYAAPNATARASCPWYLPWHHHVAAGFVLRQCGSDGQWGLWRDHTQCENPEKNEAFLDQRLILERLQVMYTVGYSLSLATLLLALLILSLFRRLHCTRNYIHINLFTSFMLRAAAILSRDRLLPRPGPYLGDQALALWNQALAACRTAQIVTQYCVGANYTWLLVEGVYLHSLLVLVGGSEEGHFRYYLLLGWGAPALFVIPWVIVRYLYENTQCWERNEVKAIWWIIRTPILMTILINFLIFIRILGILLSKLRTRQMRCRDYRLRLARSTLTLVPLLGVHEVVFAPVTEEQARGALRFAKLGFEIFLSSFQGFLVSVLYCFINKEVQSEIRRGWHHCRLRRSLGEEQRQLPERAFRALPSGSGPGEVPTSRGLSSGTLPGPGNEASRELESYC
Method: as §1, with “It is understood that a lower EC50 indicates higher activity or potency at the receptor. […] The” for “The”

[3] = target: T3, glucagon receptor (Homo sapiens, UniProt P47871); assay: cAMP induction, firefly luciferase reporter assay in HEK293 cells co-transfected with the glucagon receptor; details: HEK293 cells, cAMP-responsive luciferase reporter, 5 hours incubation
T3 construct: expressed in transfected cells; host or cells: HEK293
Method: as §1

T1 sequence (P43220 24-463): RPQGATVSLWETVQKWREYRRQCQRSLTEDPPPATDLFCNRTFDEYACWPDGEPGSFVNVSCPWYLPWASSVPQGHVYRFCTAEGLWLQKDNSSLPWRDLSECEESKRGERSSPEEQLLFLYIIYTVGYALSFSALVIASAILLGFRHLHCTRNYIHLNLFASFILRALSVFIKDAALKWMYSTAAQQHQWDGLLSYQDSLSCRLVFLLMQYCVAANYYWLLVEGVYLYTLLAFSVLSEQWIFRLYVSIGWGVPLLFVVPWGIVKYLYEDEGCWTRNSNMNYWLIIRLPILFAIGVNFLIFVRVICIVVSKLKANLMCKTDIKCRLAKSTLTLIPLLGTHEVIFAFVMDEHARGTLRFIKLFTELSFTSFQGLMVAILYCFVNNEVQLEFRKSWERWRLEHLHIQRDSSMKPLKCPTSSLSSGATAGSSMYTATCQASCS
T3 sequence (P47871 26-477, species assumed): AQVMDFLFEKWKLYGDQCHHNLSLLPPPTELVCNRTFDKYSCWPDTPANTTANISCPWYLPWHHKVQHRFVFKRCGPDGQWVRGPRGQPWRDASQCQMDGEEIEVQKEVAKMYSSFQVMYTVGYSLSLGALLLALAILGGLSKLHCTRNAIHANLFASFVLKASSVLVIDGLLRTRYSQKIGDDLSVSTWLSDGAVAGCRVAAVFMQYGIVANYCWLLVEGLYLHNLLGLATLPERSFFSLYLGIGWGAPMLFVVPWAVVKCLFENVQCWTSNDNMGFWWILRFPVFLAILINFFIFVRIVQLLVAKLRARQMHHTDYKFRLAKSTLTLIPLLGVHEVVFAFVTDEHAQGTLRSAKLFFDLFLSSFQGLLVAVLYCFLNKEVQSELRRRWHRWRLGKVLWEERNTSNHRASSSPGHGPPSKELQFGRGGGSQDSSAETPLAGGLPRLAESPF

Structure (SMILES) | EC50 [1] [nM] | EC50 [2] [nM] | EC50 [3] [nM]
CCCCCCCCCCCCCCCC(=O)N[C@@H](CCC(=O)N[C@@H](CCC(=O)NCCCC[C@H](NC(=O)[C@H](CC(=O)O)NC(=O)[C@H](CO)NC(=O)[C@@H](NC(=O)[C@H](Cc1ccccc1)NC(=O)[C@@H](NC(=O)CNC(=O)[C@H](CCC(N)=O)NC(=O)C(C)(C)NC(=O)[C@@H](N)Cc1c[nH]cn1)[C@@H](C)O)[C@@H](C)O)C(=O)N[C@@H](CO)C(=O)N[C@@H](CCCCN)C(=O)N[C@@H](Cc1ccc(O)cc1)C(=O)N[C@@H](CC(C)C)C(=O)N[C@@H](CC(=O)O)C(=O)NC(C)(C)C(=O)N[C@@H](CCCNC(=N)N)C(=O)N[C@@H](C)C(=O)N[C@@H](C)C(=O)N[C@@H](CCC(N)=O)C(=O)N[C@@H](CC(=O)O)C(=O)N[C@@H](Cc1ccccc1)C(=O)N[C@H](C(=O)N[C@@H](CCC(N)=O)C(=O)N[C@@H](Cc1c[nH]c2ccccc12)C(=O)N[C@@H](CC(C)C)C(=O)N[C@@H](CCSC)C(=O)N[C@@H](CC(=O)O)C(=O)N[C@H](C(=O)N[C@@H](CCCCN)C(=O)N[C@H](C)C(=O)O)[C@@H](C)O)C(C)C)C(=O)O)C(=O)O [compound 32] (H-H[Aib]QGTFTSDK([γGlu-γGlu-Palmitoyl])SKYLD[Aib]RAAQDFVQWLMDTK[dA]-OH) | 0.008 | 2.08 | 0.007
CCCCCCCCCCCCCCCC(=O)N[C@@H](CCC(=O)NCCCC[C@H](NC(=O)[C@H](CC(=O)O)NC(=O)[C@H](CO)NC(=O)[C@@H](NC(=O)[C@H](Cc1ccccc1)NC(=O)[C@@H](NC(=O)CNC(=O)[C@H](CCC(N)=O)NC(=O)C(C)(C)NC(=O)[C@@H](N)Cc1c[nH]cn1)[C@@H](C)O)[C@@H](C)O)C(=O)N[C@@H](CO)C(=O)N[C@@H](CCCCN)C(=O)N[C@@H](Cc1ccc(O)cc1)C(=O)N[C@@H](CC(C)C)C(=O)N[C@@H](CC(=O)O)C(=O)NC(C)(C)C(=O)N[C@@H](CCCNC(=N)N)C(=O)N[C@@H](C)C(=O)N[C@@H](C)C(=O)N[C@@H](CCC(N)=O)C(=O)N[C@@H](CC(=O)O)C(=O)N[C@@H](Cc1ccccc1)C(=O)N[C@H](C(=O)N[C@@H](CCC(N)=O)C(=O)N[C@@H](Cc1c[nH]c2ccccc12)C(=O)N[C@@H](CC(C)C)C(=O)N[C@@H](CC(C)C)C(=O)N[C@@H](CC(=O)O)C(=O)NCC(=O)N[C@@H](CCCNC(=N)N)C(=O)NCC(N)=O)C(C)C)C(=O)O [compound 30] (H-H[Aib]QGTFTSDK([γGlu-Palmitoyl])SKYLD[Aib]RAAQDFVQWLLDGRG-NH2) | 0.0082 | 9.06 | 0.933
CCCCCCCCCCCCCCCC(=O)N[C@@H](CCC(=O)N[C@@H](CCC(=O)NCCCC[C@H](NC(=O)[C@H](CC(=O)O)NC(=O)[C@H](CO)NC(=O)[C@@H](NC(=O)[C@H](Cc1ccccc1)NC(=O)[C@@H](NC(=O)CNC(=O)[C@H](CCC(N)=O)NC(=O)C(C)(C)NC(=O)[C@@H](N)Cc1c[nH]cn1)[C@@H](C)O)[C@@H](C)O)C(=O)N[C@@H](CO)C(=O)N[C@@H](CCCCN)C(=O)N[C@@H](Cc1ccc(O)cc1)C(=O)N[C@@H](CC(C)C)C(=O)N[C@@H](CC(=O)O)C(=O)NC(C)(C)C(=O)N[C@@H](CCCNC(=N)N)C(=O)N[C@@H](C)C(=O)N[C@@H](C)C(=O)N[C@@H](CCC(N)=O)C(=O)N[C@@H](CC(=O)O)C(=O)N[C@@H](Cc1ccccc1)C(=O)N[C@H](C(=O)N[C@@H](CCC(N)=O)C(=O)N[C@@H](Cc1c[nH]c2ccccc12)C(=O)N[C@@H](CC(C)C)C(=O)N[C@@H](CCSC)C(=O)N[C@@H](CCCCN)C(=O)N[C@H](C(=O)N[C@@H](CCCCN)C(=O)N[C@H](CCC(=O)O)C(=O)O)[C@@H](C)O)C(C)C)C(=O)O)C(=O)O [compound 37] (H-H[Aib]QGTFTSDK([γGlu-γGlu-Palmitoyl])SKYLD[Aib]RAAQDFVQWLMKTK[dE]-OH; N-terminus assumed) | 0.016 | 3.3 | 0.018
CCCCCCCCCCCCCCCC(=O)N[C@@H](CCC(=O)N[C@@H](CCC(=O)NCCCC[C@H](NC(=O)[C@H](CC(=O)O)NC(=O)[C@H](CO)NC(=O)[C@@H](NC(=O)[C@H](Cc1ccccc1)NC(=O)[C@@H](NC(=O)CNC(=O)[C@H](CCC(N)=O)NC(=O)C(C)(C)NC(=O)[C@@H](N)Cc1c[nH]cn1)[C@@H](C)O)[C@@H](C)O)C(=O)N[C@@H](CO)C(=O)N[C@@H](CCCCN)C(=O)N[C@@H](Cc1ccc(O)cc1)C(=O)N[C@@H](CC(C)C)C(=O)N[C@@H](CC(=O)O)C(=O)NC(C)(C)C(=O)N[C@@H](CCCNC(=N)N)C(=O)N[C@@H](C)C(=O)N[C@@H](C)C(=O)N[C@@H](CCC(N)=O)C(=O)N[C@@H](CC(=O)O)C(=O)N[C@@H](Cc1ccccc1)C(=O)N[C@H](C(=O)N[C@@H](CCC(N)=O)C(=O)N[C@@H](Cc1c[nH]c2ccccc12)C(=O)N[C@@H](CC(C)C)C(=O)N[C@@H](CCSC)C(=O)N[C@@H](CCCCN)C(=O)NCC(=O)N[C@@H](CCCNC(=N)N)C(=O)NCC(=O)O)C(C)C)C(=O)O)C(=O)O [compound 31] (H-H[Aib]QGTFTSDK([γGlu-γGlu-Palmitoyl])SKYLD[Aib]RAAQDFVQWLMKGRG-OH; N-terminus assumed) | 0.007 | 2.34 | 0.016

Compounds with a lower EC50 [1], results first:

EC50 [1] [nM] | EC50 [2] [nM] | EC50 [3] [nM] | Structure (SMILES)
0.002 | 2.37 | 0.005 | CCCCCCCCCCCCCCCC(=O)N[C@@H](CCC(=O)N[C@@H](CCC(=O)NCCCC[C@H](NC(=O)[C@H](CC(=O)O)NC(=O)[C@H](CO)NC(=O)[C@@H](NC(=O)[C@H](Cc1ccccc1)NC(=O)[C@@H](NC(=O)CNC(=O)[C@H](CCC(N)=O)NC(=O)C(C)(C)NC(=O)[C@@H](N)Cc1c[nH]cn1)[C@@H](C)O)[C@@H](C)O)C(=O)N[C@@H](CO)C(=O)N[C@@H](CCCCN)C(=O)N[C@@H](Cc1ccc(O)cc1)C(=O)N[C@@H](CC(C)C)C(=O)N[C@@H](CC(=O)O)C(=O)NC(C)(C)C(=O)N[C@@H](CCCNC(=N)N)C(=O)N[C@@H](C)C(=O)N[C@@H](C)C(=O)N[C@@H](CCC(N)=O)C(=O)N[C@@H](CC(=O)O)C(=O)N[C@@H](Cc1ccccc1)C(=O)N[C@H](C(=O)N[C@@H](CCC(N)=O)C(=O)N[C@@H](Cc1c[nH]c2ccccc12)C(=O)N[C@@H](CC(C)C)C(=O)N[C@@H](CCSC)C(=O)N[C@@H](CC(=O)O)C(=O)NCC(=O)N[C@@H](CCCNC(=N)N)C(=O)NCC(N)=O)C(C)C)C(=O)O)C(=O)O [compound 22] (H-H[Aib]QGTFTSDK([γGlu-γGlu-Palmitoyl])SKYLD[Aib]RAAQDFVQWLMDGRG-NH2; N-terminus assumed)
0.003 | 0.47 | 0.028 | CCCCCCCCCCCCCCCC(=O)N[C@@H](CCC(=O)NCCCC[C@H](NC(=O)[C@H](CC(=O)O)NC(=O)[C@H](CO)NC(=O)[C@@H](NC(=O)[C@H](Cc1ccccc1)NC(=O)[C@@H](NC(=O)CNC(=O)[C@H](CCC(N)=O)NC(=O)C(C)(C)NC(=O)[C@@H](N)Cc1c[nH]cn1)[C@@H](C)O)[C@@H](C)O)C(=O)N[C@@H](CO)C(=O)N[C@@H](CCCCN)C(=O)N[C@@H](Cc1ccc(O)cc1)C(=O)N[C@@H](CC(C)C)C(=O)N[C@@H](CC(=O)O)C(=O)NC(C)(C)C(=O)N[C@@H](CCCNC(=N)N)C(=O)N[C@@H](C)C(=O)N[C@@H](C)C(=O)N[C@@H](CCC(N)=O)C(=O)N[C@@H](CC(=O)O)C(=O)N[C@@H](Cc1ccccc1)C(=O)N[C@H](C(=O)N[C@@H](CCC(N)=O)C(=O)N[C@@H](Cc1c[nH]c2ccccc12)C(=O)N[C@@H](CC(C)C)C(=O)N[C@@H](CCCCN)C(=O)N[C@@H](CC(=O)O)C(=O)NCC(=O)N[C@@H](CCCNC(=N)N)C(=O)NCC(N)=O)C(C)C)C(=O)O [compound 36] (H-H[Aib]QGTFTSDK([γGlu-Palmitoyl])SKYLD[Aib]RAAQDFVQWLKDGRG-NH2)
0.004 | 3.29 | 0.106 | CCCCCCCCCCCCCCCC(=O)N[C@@H](CCC(=O)N[C@@H](CCC(=O)NCCCC[C@H](NC(=O)[C@H](CC(=O)O)NC(=O)[C@H](CO)NC(=O)[C@@H](NC(=O)[C@H](Cc1ccccc1)NC(=O)[C@@H](NC(=O)CNC(=O)[C@H](CCC(N)=O)NC(=O)C(C)(C)NC(=O)[C@@H](N)Cc1c[nH]cn1)[C@@H](C)O)[C@@H](C)O)C(=O)N[C@@H](CO)C(=O)N[C@@H](CCCCN)C(=O)N[C@@H](Cc1ccc(O)cc1)C(=O)N[C@@H](CC(C)C)C(=O)N[C@@H](CC(=O)O)C(=O)NC(C)(C)C(=O)N[C@@H](CCCNC(=N)N)C(=O)N[C@@H](C)C(=O)N[C@@H](C)C(=O)N[C@@H](CCC(N)=O)C(=O)N[C@@H](CC(=O)O)C(=O)N[C@@H](Cc1ccccc1)C(=O)N[C@H](C(=O)N[C@@H](CCC(N)=O)C(=O)N[C@@H](Cc1c[nH]c2ccccc12)C(=O)N[C@@H](CC(C)C)C(=O)N[C@@H](CCCCN)C(=O)NC(C)(C)C(=O)NCC(=O)N[C@@H](CCCNC(=N)N)C(=O)NCC(N)=O)C(C)C)C(=O)O)C(=O)O [compound 26] (H-H[Aib]QGTFTSDK([γGlu-γGlu-Palmitoyl])SKYLD[Aib]RAAQDFVQWLK[Aib]GRG-NH2; N-terminus assumed)
